Source: patent US20240116923A1, “USE OF INDOLE, 6- AND 7-AZAINDOLE DERIVATIVES AS INHIBITORS OF FERROPTOSIS REGULATED CELL DEATH” (Seabelife, priority 2021, published 2024)
Where two headings read alike, the source gives them in different places.

What was measured:
Abca4−/−Rdh8−/− mice = assay: In vivo model of Stargardt's disease and AMD, blue light damage, ERG and OCT
Experimental: As described in Parmar et al., Invest Ophthalmol Vis Sci., 2016, 57(7), mice lacking ATP-binding cassette transporter 4 (ABCA4) and retinol dehydrogenase 8 (RDH8) mimic features of human Stargardt's disease and age-related macular degeneration. Intense light exposure can accelerate retinal degeneration in Abca4^−/−Rdh8^−/− mice.
Blue light damage (BLD) experiments are performed on 7-week-old Abca4−/−Rdh8−/− mice. The animals were adapted to low light levels (4000 lux, 30 minutes). Six days after BLD, an optical coherence tomography (OCT) examination of each eye is performed, which provides a “snapshot” of the state of the retinal cell layers in living mice. OCT is based on the use of a low coherence interferometer. This imaging technique allows in vivo cross-sectional images of tissues to be taken with a resolution of a few microns. It is performed under light gas anaesthesia (5% isoflurane at induction then 2% during maintenance) and is non-invasive. The pupils of the mice are dilated with 0.5% Midriaticum. A representative image of each eye was extracted and included in separate report documents (4 OCT attachments). The following day, measurements of the electrical activity of the retina were made by measuring scotopic and photopic electroretinograms (ERG). The scotopic ERG is performed after a night in the dark in order to measure the electrical response of the rods which represent 97% of the photoreceptors in the mouse. At higher intensities, the cones also respond. This is followed by a photopic ERG which records the response of the cones only. Three measurements corresponding to the activity of 1) rod and cone photoreceptors, 2) inner retinal bipolar cells and 3) cones only, are obtained. The eyes are then harvested and prepared for subsequent histological analysis. In the IP experiments, one eye is dissected and the retina and RPE are frozen separately. These tissues can be used for further measurements.
Compound 1 in powder form is taken up in DMSO in order to obtain a solution at 20 mM. These solutions are stored at −20° C. and are thawed extemporaneously to prepare a solution diluted 89 times in PBS. These solutions give a final concentration in the eye of around 50 μM for compound 1, and 0.25% DMSO. A vehicle is prepared from pure DMSO to achieve a final 0.25% in the vitreous. Mice are lightly anaesthetised with isoflurane during the IVT procedure. A volume of 1.5 μL is injected into the vitreous of the left eye.
In order to measure the thickness of the retina and the photoreceptor layer, image processing was performed using Image J software. The thickness of the whole retina is measured between the outer segment layer and the ganglion cell layer. The thickness of the photoreceptor layer is measured between the outer plexiform layer and the outer segment layer. On average 6 measurements are made along the length of an OCT image representing an upper or lower half-retina. In order to prepare plates of sections of the eyes from the SBL2 IVT experiment, one eye corresponding to each condition was cut on the cryostat, i.e. one NINI eye and both eyes of an SBL2-injected mouse (I and NI).
The solutions are prepared extemporaneously from water-soluble lyophilisates of compound 7 (SBL1)-cyclodextrin (final CD concentration, 15%) and the corresponding placebos. The solutions are prepared by injecting a predefined volume of 0.9% NaCl into the vial. The vial is then vortexed and the solution is filtered into a new sterile tube. Two groups of 3 mice are used for these tests. The group received either SBL1 (20 mg/kg) (n=3) or placebo-SBL1 (n=3). The volume to be injected is calculated according to the weight of the mice and corresponds to 10 ml/kg. Mice were injected 3 and 1 h before and 1 and 3 h after the start of the BLD.

[1] = system: mouse hippocampal neuronal cell line HT22; assay: Neurotoxicity and excitotoxicity assay, HT22 cells + glutamate, erastin or RSL3, MTS cell viability; format: cell-based; conditions: Mus musculus
Experimental: (§1) The excitotoxicity model used was the mouse hippocampal neuronal HT22 cells treated with glutamate [Dixon et al., Cell, 2012, 149(5), 1060-1072]. Ferroptosis and oxidative stress are both associated in this glutamate-induced cell death [Chu et al., Neural Regen. Res., 2020, 15(3), 528-536]. Phenotypic screening was also carried out with additional cell death inducers, erastin and RSL3 ((1S,3R)-Ras-selective lethal), in HT22 and SH-SY5Y (human neuroblastoma cells). Erastin and RSL3 are well described molecules, used as chemical tools for the study of ferroptosis regulation and neuronal pathologies [Lewerenz et al., Front. Neurosci., 2018, 12: 214; Reichert et al., Int. J. Mol. Sci., 2020, 21, 8765].
(§2) Mouse hippocampal neuronal cell line (HT22, ATCC) and human neuroblastoma cell line (SH-SY5Y, ATCC) were grown in Dulbecco's Modified Eagle Medium (DMEM, Gibco) supplemented with 10% fetal bovine serum (FBS, Gibco) at 37° C. under 5% CO2 atmosphere. Neurotoxicity was induced by erastin or RSL3 and excitotoxicity was induced by glutamate. Cells were seeded in 96-well plates at 5,000 and 10,000 cells/well for HT22 and SH-SY5Y cell lines, respectively. Cells were treated with 0.5-1 μM Erastin (HT22 cells) or 10 μM Erastin (SH-SY5Y cells) or 5-10 mM glutamate (HT22 cells) or 0.5 μM RSL3 (HT22 cells) or 5 μM RSL3 (SH-SY5Y cells) for 24 h in presence of increasing concentrations of inhibitors. Cells treated with DMSO only were used as controls. Cell viability was assessed by MTS assay (CellTiter 96 AQueous One Solution Cell Proliferation assay, Promega).
(§3) In FIGS. 1, 2A and 2B, an inhibitor was added to HT22 (FIG. 1: compound 6) or SH-SY5Y (FIG. 2A: compound 6; FIG. 2B: compound 25) cells in the presence or not of cell death inducers (erastin, glutamate or RSL3). […] EC50 values for compounds 1-28 were calculated from dose-response curves using Graphpad Prism software.

[2] = system: human neuroblastoma cell line SH-SY5Y; assay: Neurotoxicity assay, SH-SY5Y cells + erastin or RSL3, MTS cell viability; format: cell-based; conditions: Homo sapiens
Experimental: as §1, §2, §3

**Q.** For `Oc1ccc(-c2cc3ccccc3[nH]2)cc1` [Compound 1, 4-(1H-indol-2-yl)phenol], which “electrical response of retinal cells (scotopic and photopic ERG)” value (Abca4−/−Rdh8−/− mice; intravitreal injection, 50 μM in the eye, after blue light damage) is on record?
**A.** appears to preserve the electrical response of retinal cells

**Q.** And the “thickness of the retinas from OCT, injected versus non-injected eyes” value (Abca4−/−Rdh8−/− mice; intravitreal treatment, FIG. 33)?
**A.** significant difference

**Q.** What about the “photopic ERG, injected vs non-injected eyes” value (Abca4−/−Rdh8−/− mice; intravitreal, 50 μM, 30 cd·s/m2, FIG. 30) of the same molecule?
**A.** partially preserved

**Q.** And the “scotopic ERG B wave, injected vs uninjected eyes” value (Abca4−/−Rdh8−/− mice; intravitreal, 50 μM, p=0.048 vs VEH NI at 30 cd·s/m2, FIG. 32)?
**A.** appears preserved

**Q.** What about the “scotopic ERG A wave, injected eye vs vehicle-injected eye” value (Abca4−/−Rdh8−/− mice; intravitreal, 50 μM, significant (P=0.0206) vs VEH NI at 10 cd·s/m2, FIG. 31) of the same molecule?
**A.** a clear difference is observed

**Q.** What about the EC50 ([1]; HT-22, 24 h, read-out: EC50 HT22 Erastin) of the same molecule?
**A.** 2.9 µM

**Q.** What about the EC50 ([1]; HT-22, 24 h, read-out: EC50 HT22 Glutamate) of the same molecule?
**A.** 2.55 µM

**Q.** What about the EC50 ([1]; HT-22, 24 h, read-out: EC50 HT22 RSL3) of the same molecule?
**A.** 3.27 µM

**Q.** What about the EC50 ([2]; SH-SY5Y, 24 h, read-out: EC50 SH-SY5Y Erastin) of the same molecule?
**A.** 1.06 µM

**Q.** What does the source list for `Oc1ccc(-c2cc3cccnc3[nH]2)cc1` [Compound 7, 4-(1H-pyrrolo[2,3-b]pyridin-2-yl)phenol]?
**A.** electrical response of retinal cells (scotopic and photopic ERG) compared to placebo (Abca4−/−Rdh8−/− mice; intraperitoneal 20 mg/kg, 3 and 1 h before and 1 and 3 h after start of BLD, cyclodextrin lyophilisate): slightly protect the electrical response of retinal cells; scotopic B wave at higher intensities (inner retina response) (Abca4−/−Rdh8−/− mice; intraperitoneal 20 mg/kg, FIG. 35): protective trend; scotopic ERG response to the 30 cd·s/m^2 flash intensity (mixed rod-cone response) (Abca4−/−Rdh8−/− mice; intraperitoneal 20 mg/kg, FIGS. 34 & 35): protective trend; whole retinal thickness from OCT, injected vs non-injected mice (Abca4−/−Rdh8−/− mice; intraperitoneal treatment, FIG. 36): a difference between the whole retinas of injected and non-injected mice; EC50 ([1]; HT-22, HT22 cells, 0.5 μM RSL3, 24 h, MTS, read-out: EC50 HT22 RSL3): 14.6 µM; EC50 ([1]; HT-22, HT22 cells, 0.5-1 μM Erastin, 24 h, MTS, read-out: EC50 HT22 Erastin): > 25 µM; EC50 ([1]; HT-22, HT22 cells, 5-10 mM glutamate, 24 h, MTS, read-out: EC50 HT22 Glutamate): > 25 µM; EC50 ([2]; SH-SY5Y cells, 5 μM RSL3, 24 h, MTS, read-out: EC50 SH-SY5Y RSL3): 1.36 µM; EC50 ([2]; SH-SY5Y cells, 10 μM Erastin, 24 h, MTS, read-out: EC50 SH-SY5Y Erastin): 12.4 µM
